From article PMC10703884, “Targeting the COMMD4–H2B protein complex in lung cancer” (British Journal of Cancer, 2023)
“Also recorded” adds a separate entry of the source. No end group written: not given here.

Tests used:
[1] = tested on: H460, H1299 and CRL5889 NSCLC cells; assay: CellTiter-Glo 2.0 luminescent cell viability after IR, NSCLC cells; type: cell-based; details: CellTiter-Glo 2.0, 48 h post-irradiation, three independent experiments
Procedure: H1299, CRL5889 and H460 cells were cultured in Roswell Park Memorial Institute (RPMI) 1640 medium (Life Technologies) containing 10% foetal bovine serum (Thermo Fisher Scientific). Human bronchial epithelial cells (HBEC3-KT) were maintained in keratinocyte serum-free medium supplemented with epidermal growth factor and bovine pituitary extract (Life Technologies). The histology features and origin of all cell lines used have been previously described. Cell lines were authenticated using STR profiling. Cells were grown in a humidified incubator at 37 °C/5% CO2 atmosphere. All cell lines were verified to be free of mycoplasma contamination.
Irradiations were done at room temperature using a ^137Cs source (Gammacell 40 Exactor [MDS Nordion]; dose rate 1.1 Gy/min). […]
For siRNA transfections, cells were transfected with negative control or COMMD4 siRNA #2 (CCAUGUCCCUCUCAGCAGA[dT][dT] MISSION® siRNA, Sigma-Aldrich) using RNAiMax (Life Technologies) as previously described and samples were analysed 48 to 72 h post-transfection. […] Cells were mock-transfected, or transfected with FLAG-H2BWT/FLAG-H2BMUT1, or COMMD4-FLAG/A70K with FuGENE® HD (Promega) using the manufacturer’s protocol and analysed 24 h post-transfection.
A CellTiter-Glo 2.0 Luminescent assay (Promega Corporation) was carried out as previously described. […] Luminescence was measured using a PHERAstar FSX detection system (BMG Labtech). […]

[2] = tested on: NSCLC cells; assay: Immunofluorescence γH2AX and MDC1 foci, NSCLC cells; type: cell-based; details: 6 Gy IR, 0.5 to 2 h post-IR, 50 cells per condition, three independent experiments
Procedure: (§1) For siRNA transfections, cells were transfected with negative control or COMMD4 siRNA #2 (CCAUGUCCCUCUCAGCAGA[dT][dT] MISSION® siRNA, Sigma-Aldrich) using RNAiMax (Life Technologies) as previously described and samples were analysed 48 to 72 h post-transfection. The H2B wild-type (FLAG-H2BWT) and mutant (FLAG-H2BMUT1) expression constructs were generated with the 10-amino acid peptide and the corresponding mutant cloned into the expression vector pCDNA3.1/(+)-N-DYK containing an N-terminal FLAG tag and a C-terminal nuclear localisation signal (AAKRVKLDS) (GenScript). A70K FLAG-COMMD4 expression construct was generated by mutating the corresponding COMMD4-FLAG construct to harbour an A70K mutation (GenScript). Cells were mock-transfected, or transfected with FLAG-H2BWT/FLAG-H2BMUT1, or COMMD4-FLAG/A70K with FuGENE® HD (Promega) using the manufacturer’s protocol and analysed 24 h post-transfection.
NSCLC and control cells transfected with siRNA or H2B plasmids were grown in optical glass bottom 96-well plates (Cellvis). Post-treatment, cells were pre-extracted with ice-cold extraction buffer (20 mM HEPES (pH 8), 20 mM NaCl, 5 mM MgCl2, 1 mM ATP, 0.5% NP40), to remove the soluble proteins and processed as previous. Images were captured using a Delta Vision PDV microscope 100x/1.42 Oil objective (Applied Precision, Inc). All immunofluorescence figures were assembled using Adobe Photoshop. High-content microscopy was performed using the InCell Analyzer 6500 Imaging System (GE Healthcare Life Sciences). Images were analysed using the InCarta Image Analysis software (GE Healthcare Life Sciences) where a minimum of 50 nuclei were quantified per experiment.
Fig. 4 Induction of DSBs in NSCLC and control cells. a Immunofluorescence staining of H1299 NSCLC cells transfected with control or COMMD4 siRNA #2 and FLAG-H2BWT or FLAG-H2BMUT1 is shown. […]
independent experiments where 50 cells were quantified per condition. γH2AX is shown in […]
mean ± SD from three independent experiments where 50 cells were quantified per condition.

[3] = tested on: NSCLC cells; assay: Mitotic catastrophe (emerin and phalloidin staining), NSCLC cells; type: cell-based; details: 100 cells counted
Procedure: as §1, with “A70K FLAG-COMMD4 expression construct was generated by mutating the corresponding COMMD4-FLAG construct to harbour an A70K mutation (GenScript).” left out
(§2) NSCLC cells were grown in 96-well plates as above and stained with anti-emerin antibody and phalloidin. Mitotic catastrophe was scored as previous. A minimum of 100 cells for each experimental condition were assessed to determine the percentage of aberrant nuclei.
(§3) As previously determined, in this study, we used two markers to determine mitotic catastrophe: emerin staining of the nuclear envelope and phalloidin staining of the F-actin cytoskeleton. […] We subsequently measured apoptosis by staining for Annexin V and propidium iodide via flow cytometry in FLAG-H2B WT, FLAG-H2BMUT1 and mock-transfected control and NSCLC cells (Fig. 5c, d). […]

[4] = tested on: HBEC3-KT cells; assay: Mitotic catastrophe (emerin and phalloidin staining), HBEC3-KT cells; type: cell-based, Human; details: 100 cells counted
Procedure: as §1, with “A70K FLAG-COMMD4 expression construct was generated by mutating the corresponding COMMD4-FLAG construct to harbour an A70K mutation (GenScript).” left out
as §2, §3

Substance: FLAG-H2BWT: 10-amino acid peptide cloned into expression vector containing an N-terminal FLAG tag and a C-terminal nuclear localisation signal ({FLAG}-SFVNDIFERIAAKRVKLDS)
- sensitivity to ionising radiation (luminescent viability) [1]: hypersensitive to IR compared to FLAG-H2BMUT1 and mock-transfected cells
- γH2AX and MDC1 (DNA repair) foci [2]: significantly more DNA repair foci
- aberrant nuclei / mitotic catastrophe [3]: significantly more aberrant nuclei, indicative of mitotic catastrophe induction, relative to FLAG-H2BMUT1; also recorded: significantly more mitotic catastrophe than control cells
- aberrant nuclei / mitotic catastrophe [4]: also underwent mitotic catastrophe, but to a lesser extent than the NSCLC cell lines
